Reference: US9549554B2, “Insecticidal synergistic combinations of phthaldiamide derivatives and abamectin, emamectin, lepimectin or milbemectin” (BAYER CROPSCIENCE AKTIENGESELLSCHAFT, priority 2013, dated 2017)

Assays:
Spodoptera frugiperda = test: whole plant or invertebrate
Method: Solvent: 78.0 parts by weight acetone
• 1.5 parts by weight dimethylformamide Emulsifier: 0.5 parts by weight alkylarylpolyglycolether
To produce a suitable preparation of a spore suspension the spores are diluted with emulsifier-containing water to the desired concentration.
Maize (Zea mais) leaf sections are sprayed with a preparation of the active ingredient of the desired concentration. Once dry, the leaf sections are infested with fall armyworm larvae (Spodoptera frugiperda).
After the specified period of time, mortality in % is determined. 100% means all caterpillars have been killed and 0% means none of the caterpillars have been killed. The mortality values determined thus are recalculated using the Colby-formula (see sheet 1).

Phaedon cochleariae = Phaedon cochleariae spray test (Chinese cabbage leaf disks); assay type: in vivo; settings: mustard beetle larvae
Description: Solvent: 78.0 parts by weight of acetone
• 1.5 parts by weight of dimethylformamide Emulsifier: 0.5 parts by weight of alkylaryl polyglycolether
Once dry, the leaf disks are infested with mustard beetle larvae (Phaedon cochleariae).
100% means all beetle larvae have been killed and 0% means none of the beetle larvae have been killed.

Myzus persicae = Myzus persicae spray test (infested cabbage leaves); assay type: in vivo; settings: green peach aphid
Method: Solvent: 7 parts by weight of dimethylformamide
Emulsifier: alkylaryl polyglycolether
Further test concentrations are prepared by dilution with emulsifier containing water Ammonium salt and/or penetration enhancer in a dosage of 1000 ppm are added to the desired concentration if necessary.
Cabbage leaves (Brassica oleracea) which are heavily infested by the green peach aphid (Myzus persicae) are treated by being sprayed with the preparation of the active compound of the desired concentration.

[1] = Spodoptera frugiperda, in Zea mays, 144 h, read-out: Efficacy in % after 6d (mortality)

## Cc1cc(C(F)(C(F)(F)F)C(F)(F)F)ccc1NC(=O)c1cccc(Cl)c1C(=O)NC(C)(C)C#N [(I-5)]
Spodoptera frugiperda; [1]
  mortality at 0.25 g/ha: 0%
  mortality at 3 g/ha: 33%
Phaedon cochleariae; Phaedon cochleariae, foliar, 144 h, 4 g ai/ha, after 6 d, read-out: Efficacy in % after 6d (mortality)
  mortality at 4 g/ha: 0%
Myzus persicae; Myzus persicae, 144 h, 3 ppm, after 6 d, read-out: Efficacy in % after 6d (mortality)
  mortality at 3 ppm: 0%
Myzus persicae; Myzus persicae, 144 h, 75 ppm, after 6 d, read-out: Efficacy in % after 6d (mortality)
  mortality at 75 ppm: 0%

## Abamectin [Abamectin (II-1), reference compound]
Spodoptera frugiperda; 15 g ai/ha, fall armyworm larvae, after 6 d
  Efficacy in % after 6d (mortality): 0%
Phaedon cochleariae; 0.032 g ai/ha
  Efficacy in % after 6d (mortality): 0%

## Emamectin benzoate [Emamectin-Benzoate, reference compound]
Myzus persicae; 15 ppm
  Efficacy in % after 6d (mortality): 15%
